This is an account of results in ChEMBL document CHEMBL1201862, “PubChem BioAssay data set” (2004).

Experiment [1] addresses T1, Calpain-2 catalytic subunit (Sus scrofa, UniProt P43367).
T1 sequence (P43367 whole entry): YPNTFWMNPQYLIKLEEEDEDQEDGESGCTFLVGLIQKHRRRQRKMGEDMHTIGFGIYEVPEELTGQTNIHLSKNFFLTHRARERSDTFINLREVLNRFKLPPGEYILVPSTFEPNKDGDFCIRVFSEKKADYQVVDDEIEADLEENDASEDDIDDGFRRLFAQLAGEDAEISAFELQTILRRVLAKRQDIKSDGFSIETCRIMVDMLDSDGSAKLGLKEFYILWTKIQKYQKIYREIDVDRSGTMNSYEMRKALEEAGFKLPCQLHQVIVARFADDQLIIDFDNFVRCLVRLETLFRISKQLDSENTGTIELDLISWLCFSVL
Briefly: pig calpain II inhibitor potency, dose response, biochemical, fluorogenic peptide substrate (AID 1420). The experiment is classed as functional.

Experiment [2] can be described thus: cells. In kind it is functional.
The target of experiment [3] is Large T antigen (Simian virus 40, UniProt P03070). The experiment is classed as functional, Betapolyomavirus macacae.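 Also: Confirmatory-stage PubChem screen for compounds that inhibit SV40 T antigen.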
Sequence of Large T antigen (P03070 whole entry): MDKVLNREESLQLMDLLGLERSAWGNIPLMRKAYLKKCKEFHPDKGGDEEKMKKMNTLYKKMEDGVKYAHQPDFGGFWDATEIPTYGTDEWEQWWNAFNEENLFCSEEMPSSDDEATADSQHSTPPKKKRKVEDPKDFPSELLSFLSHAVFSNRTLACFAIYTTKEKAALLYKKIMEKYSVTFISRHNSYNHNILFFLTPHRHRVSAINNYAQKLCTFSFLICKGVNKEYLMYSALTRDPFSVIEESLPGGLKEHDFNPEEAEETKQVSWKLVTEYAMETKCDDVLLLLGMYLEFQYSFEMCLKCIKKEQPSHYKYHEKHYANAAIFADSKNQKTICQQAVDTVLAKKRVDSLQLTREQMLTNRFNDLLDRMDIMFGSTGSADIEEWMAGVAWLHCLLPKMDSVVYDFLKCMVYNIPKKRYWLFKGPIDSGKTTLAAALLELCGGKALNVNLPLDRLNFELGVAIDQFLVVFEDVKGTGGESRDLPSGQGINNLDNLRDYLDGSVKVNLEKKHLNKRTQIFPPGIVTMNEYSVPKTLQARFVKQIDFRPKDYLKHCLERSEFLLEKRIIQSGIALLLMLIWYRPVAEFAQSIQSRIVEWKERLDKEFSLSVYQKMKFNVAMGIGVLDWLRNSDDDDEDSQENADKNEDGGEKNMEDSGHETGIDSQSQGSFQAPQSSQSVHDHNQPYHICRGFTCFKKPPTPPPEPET
Experiment [4] concerns the target Genome polyprotein (dengue virus type 2, UniProt P29990). Briefly: Dengue-2 NS5 methyltransferase inhibitors, primary screen, biochemical, confirmation dose response (AID 588689). The experiment is classed as functional.
The subject of experiment [5] is H9c2. The experiment is described as follows: cells. In kind it is functional, cell-based. The note with it: Rattus norvegicus, H9c2, Myocardium.
For experiment [6], the target named is T2, Rac GTPase-activating protein 1 (Homo sapiens, UniProt Q9H0H5).
T2 sequence (Q9H0H5 whole entry): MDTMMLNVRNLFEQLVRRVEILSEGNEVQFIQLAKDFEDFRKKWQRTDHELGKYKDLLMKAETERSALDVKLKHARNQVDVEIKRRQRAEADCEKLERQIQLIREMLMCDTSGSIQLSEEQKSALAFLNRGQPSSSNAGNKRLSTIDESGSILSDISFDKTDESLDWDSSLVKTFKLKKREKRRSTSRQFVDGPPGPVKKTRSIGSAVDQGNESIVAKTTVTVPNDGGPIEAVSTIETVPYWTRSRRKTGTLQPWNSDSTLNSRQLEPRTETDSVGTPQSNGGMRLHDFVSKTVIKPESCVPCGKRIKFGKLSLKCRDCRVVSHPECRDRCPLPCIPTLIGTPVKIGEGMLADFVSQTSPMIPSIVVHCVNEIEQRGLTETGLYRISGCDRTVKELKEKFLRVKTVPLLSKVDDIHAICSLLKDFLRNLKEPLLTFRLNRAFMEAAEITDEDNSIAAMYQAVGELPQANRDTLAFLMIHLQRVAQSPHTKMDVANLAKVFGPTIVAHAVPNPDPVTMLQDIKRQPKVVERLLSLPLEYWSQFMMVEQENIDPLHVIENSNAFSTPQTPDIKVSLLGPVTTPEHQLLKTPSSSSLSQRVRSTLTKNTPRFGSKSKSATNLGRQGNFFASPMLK
The experiment is described as follows: MgcRacGAP GTPase-activating activity inhibitors, confirmation, biochemical, ADP Hunter fluorescence, primary and confirmatory (AID 624330). The experiment is classed as functional.

Experiment [7] is described as follows: cytotoxicity toward NIH3T3 fibroblasts, dose response, counter-screen, cell-based, ATP luminescence, mouse fibroblasts (AID 2010).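 Also: cells exposed to compound for about 90 hours before reading.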 In kind it is functional. In general terms: Counterscreens check selectivity or assay interference.
Experiment [8] in a line: inhibitors of intracellular T. cruzi replication, confirmation, NIH3T3 host cells, beta-gal luminescence (AID 2044).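 Also: intracellular parasites grown in NIH/3T3 mouse fibroblasts as host cells; luminescent beta-galactosidase reporter signal from transgenic T. cruzi replicating inside host cells; inhibitors lower the luminescence signal.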 The experiment is classed as functional, cell-based.
Experiment [9] has as its target FAD-linked sulfhydryl oxidase ALR (Homo sapiens, UniProt P55789). The experiment is described as follows: inhibitors of human ALR sulfhydryl oxidase, dose response, biochemical, H2O2 detection, luminescence, cherry-pick (AID 493248).
The target in experiment [10] is Cytochrome P450 2D6 (Homo sapiens, UniProt P10635).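 Also: CYP2D6 member of a cytochrome P450 panel assay.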
Sequence of Cytochrome P450 2D6 (P10635 whole entry): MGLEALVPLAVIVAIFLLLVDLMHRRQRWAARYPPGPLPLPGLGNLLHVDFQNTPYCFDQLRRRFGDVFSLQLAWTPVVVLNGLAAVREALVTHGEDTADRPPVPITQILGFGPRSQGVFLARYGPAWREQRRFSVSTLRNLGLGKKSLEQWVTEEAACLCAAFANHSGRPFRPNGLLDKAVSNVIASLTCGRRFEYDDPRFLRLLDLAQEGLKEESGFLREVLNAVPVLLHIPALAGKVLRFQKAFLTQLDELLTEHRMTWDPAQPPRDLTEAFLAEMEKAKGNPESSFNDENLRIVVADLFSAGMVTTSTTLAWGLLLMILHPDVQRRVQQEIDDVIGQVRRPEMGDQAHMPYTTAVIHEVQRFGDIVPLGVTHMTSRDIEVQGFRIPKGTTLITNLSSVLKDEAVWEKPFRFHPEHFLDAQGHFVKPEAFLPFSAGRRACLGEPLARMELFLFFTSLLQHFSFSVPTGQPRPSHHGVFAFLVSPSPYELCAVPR
Experiment [11] deals with Induced myeloid leukemia cell differentiation protein Mcl-1 (Homo sapiens, UniProt Q07820). In kind it is functional.
Sequence of Induced myeloid leukemia cell differentiation protein Mcl-1 (Q07820 whole entry): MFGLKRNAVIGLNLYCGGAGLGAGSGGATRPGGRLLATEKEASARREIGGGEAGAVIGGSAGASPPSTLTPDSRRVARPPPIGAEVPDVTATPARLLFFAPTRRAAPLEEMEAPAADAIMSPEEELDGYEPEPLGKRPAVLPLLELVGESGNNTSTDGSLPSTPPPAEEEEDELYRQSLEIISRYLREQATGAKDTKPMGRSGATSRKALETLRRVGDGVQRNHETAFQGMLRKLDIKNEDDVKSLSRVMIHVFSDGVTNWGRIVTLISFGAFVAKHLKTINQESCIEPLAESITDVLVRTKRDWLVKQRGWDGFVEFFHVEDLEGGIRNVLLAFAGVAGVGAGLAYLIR

The source made the active and inactive calls. Where only a bound is given, the exact number is not on record here.

Sequence of Genome polyprotein (P29990 2492-3391 limits assumed): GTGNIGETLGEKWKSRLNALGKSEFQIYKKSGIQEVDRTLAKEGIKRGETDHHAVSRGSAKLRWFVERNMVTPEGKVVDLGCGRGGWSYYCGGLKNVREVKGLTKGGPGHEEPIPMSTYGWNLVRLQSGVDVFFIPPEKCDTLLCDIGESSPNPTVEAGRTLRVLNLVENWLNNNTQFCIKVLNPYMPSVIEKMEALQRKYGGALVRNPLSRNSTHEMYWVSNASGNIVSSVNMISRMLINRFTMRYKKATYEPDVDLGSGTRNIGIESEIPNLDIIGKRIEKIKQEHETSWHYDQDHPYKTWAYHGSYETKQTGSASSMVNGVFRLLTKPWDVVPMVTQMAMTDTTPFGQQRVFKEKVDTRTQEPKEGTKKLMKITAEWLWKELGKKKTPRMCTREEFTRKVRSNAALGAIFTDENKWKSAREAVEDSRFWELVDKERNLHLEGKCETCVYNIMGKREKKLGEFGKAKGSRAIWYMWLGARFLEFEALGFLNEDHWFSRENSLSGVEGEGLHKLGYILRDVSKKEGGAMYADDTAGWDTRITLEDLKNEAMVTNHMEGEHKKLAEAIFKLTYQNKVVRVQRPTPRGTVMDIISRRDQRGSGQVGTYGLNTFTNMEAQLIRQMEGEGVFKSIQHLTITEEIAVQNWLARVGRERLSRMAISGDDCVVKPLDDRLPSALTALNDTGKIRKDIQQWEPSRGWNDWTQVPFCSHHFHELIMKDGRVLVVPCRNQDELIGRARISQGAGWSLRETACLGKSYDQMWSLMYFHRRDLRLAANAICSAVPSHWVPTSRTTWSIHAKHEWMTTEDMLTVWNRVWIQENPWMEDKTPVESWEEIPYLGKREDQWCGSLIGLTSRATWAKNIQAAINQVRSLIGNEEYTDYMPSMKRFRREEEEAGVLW
Sequence of FAD-linked sulfhydryl oxidase ALR (P55789 whole entry): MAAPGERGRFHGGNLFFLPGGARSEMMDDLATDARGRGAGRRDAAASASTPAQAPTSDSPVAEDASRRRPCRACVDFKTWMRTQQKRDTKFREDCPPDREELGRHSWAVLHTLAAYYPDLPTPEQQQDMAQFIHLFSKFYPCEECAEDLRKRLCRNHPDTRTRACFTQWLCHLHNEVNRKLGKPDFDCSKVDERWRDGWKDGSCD

On to `Cc1cc(C)c(NC(=O)Cn2cc3c(n2)CCCC3)c(C)c1`, for which the IC50 – broadly, the concentration that inhibits the measured activity by half – in [1] is reported as 20.5 µM (not active).

For `COC(=O)c1ccc(COC(=O)c2ccccn2)cc1`, the IC50 in experiment [2] was 26.6 µM (active).

Turning to `CN(C)c1ccc(NC(=O)CN2CCN(CC(=O)Nc3ccc(F)cc3)CC2)cc1`, the IC50 in [3] is 17.2 µM (active).

In the case of `CCCCCc1c2c(cc(O)c1C(=O)O)OC(=O)c1cc(C(=O)CCCC)c(OC)cc1O2`, the IC50 in experiment [4] is 39 µM (active).

Regarding `COc1ccc(C(CC(=O)N2CCN(c3ccccc3)CC2)c2c(OC)cc(OC)c3ccc(=O)oc23)cc1` (centres undefined), the IC50 in [5] is 11.4 µM (active).

Take `CCOC(=O)c1cnc(SC)nc1Oc1cccc(NC(=O)c2cccc(Cl)c2Cl)c1`: the IC50 in experiment [5] was > 79 µM (inactive).

Regarding `O=C(CCCn1c(SCC(=O)c2ccc(O)c(O)c2)nc2ccccc2c1=O)NCC1CCCO1` (centres undefined), in experiment [5], the half-inhibitory concentration (IC50) was 17.4 µM (active).

Turning to `CC1CCN(C(=O)COC(=O)c2cc3ccccc3cc2O)CC1`, the IC50 in experiment [2] is 0.9 µM (active).

Regarding `COc1ccccc1N1CCN(C(=O)c2ccc(CSc3ccccc3)cc2)CC1`, in [1], the IC50 is reported as 8.99 µM (not active).

As for `COc1ccc(CCNC(=O)c2cc(C(=O)c3cc(C)ccc3O)cn(CCc3ccc(OC)cc3)c2=O)cc1`, in experiment [5], the IC50 is > 79 µM (inactive).

Regarding `Cn1c(=O)n(CCc2ccccc2)c(=O)c2c1nc1n2CCCN1Cc1ccccc1`, the IC50 in experiment [5] is > 79 µM (inactive).

With `O=C(CC1SC(=O)N(c2ccccc2)C1=O)Nc1cccc2ccccc12` (centres undefined), in experiment [3], the IC50 is 70.4 µM (active).

Take `CCOC(=O)c1ccc(S(=O)(=O)Nc2nc3cc(S(=O)(=O)NC4=NCCCCC4)ccc3s2)cc1`: the IC50 was 107 µM (active) in experiment [6] and 33.4 µM (active) in [3].

For `Cc1ccc(NC(=O)CN(C)C(=O)CCCN2C(=O)c3ccccc3C2=O)cc1`, the IC50 in [1] is on record as 10.3 µM (not active).

For the compound `CCOC(=O)N1CCC(N2CCCC(C(=O)c3ccc4cc(OC)ccc4c3)C2)CC1` (centres undefined), the 50% effective concentration (EC50) (as a rule, the concentration giving half of the maximal effect) was 56.6 µM (active) in experiment [7] and 1.12 µM (active) in [8]. In experiment [2], the IC50 was 21.9 µM (active).

Take `COC(=O)COc1ccc2cc(-c3ccc(OC)cc3)c(=O)oc2c1`: in experiment [2], the IC50 is 1.12 µM (active).

On to `O=[N+]([O-])c1c(O)nc(/C=C\c2ccc(O)cc2)nc1O`, for which the AC50 (as a rule, the midpoint of the concentration-response curve, whichever way the signal moves) in [9] was 4.4 µM (active). For the same compound, in experiment [6], the IC50 is 50.6 µM (active).

As to `CNC(=O)c1ccc(-c2sc3nc(N4CCOCC4)c4c(c3c2N)CC(C)(C)OC4)o1`, the results for the IC50 in [5] and in experiment [3] were > 79 µM (inactive) and 2.6 µM (active), respectively. Besides, the AC50 in [10] was 15.8 µM (inconclusive).

In the case of `O=C(Nc1cccc(C(=O)O)c1)/C(=C\C=C\c1ccccc1)NC(=O)c1ccccc1`, the IC50 in experiment [1] is 13.6 µM (not active).

Turning to `O=C1NC(Cc2ccc(O)cc2)c2nc3ccc(F)cc3c(=O)n2-c2cc3ccccc3cc21` (centres undefined), the IC50 in experiment [5] was > 79 µM (inactive).

As for `COc1cc(/C=N/Nc2nc3ccccc3nc2O)ccc1O`, the IC50 in experiment [3] was 18 µM (active).

Turning to `C/C(=N\Nc1cccc(C(=O)O)c1)c1ccc2c(c1)Nc1ccccc1S2`, the IC50 is > 100 µM (active) in [4] and 0.431 µM (active) in [11].
